One experiment deals with IKZF2 (Helios) (Homo sapiens, UniProt Q96SW2+Q9UKS7). Kind of experiment: Prolabel quantification of IKZF2 protein levels in 293GT cells. Format: cell-based.
IKZF2 (Helios), sequence (Q9UKS7 whole entry): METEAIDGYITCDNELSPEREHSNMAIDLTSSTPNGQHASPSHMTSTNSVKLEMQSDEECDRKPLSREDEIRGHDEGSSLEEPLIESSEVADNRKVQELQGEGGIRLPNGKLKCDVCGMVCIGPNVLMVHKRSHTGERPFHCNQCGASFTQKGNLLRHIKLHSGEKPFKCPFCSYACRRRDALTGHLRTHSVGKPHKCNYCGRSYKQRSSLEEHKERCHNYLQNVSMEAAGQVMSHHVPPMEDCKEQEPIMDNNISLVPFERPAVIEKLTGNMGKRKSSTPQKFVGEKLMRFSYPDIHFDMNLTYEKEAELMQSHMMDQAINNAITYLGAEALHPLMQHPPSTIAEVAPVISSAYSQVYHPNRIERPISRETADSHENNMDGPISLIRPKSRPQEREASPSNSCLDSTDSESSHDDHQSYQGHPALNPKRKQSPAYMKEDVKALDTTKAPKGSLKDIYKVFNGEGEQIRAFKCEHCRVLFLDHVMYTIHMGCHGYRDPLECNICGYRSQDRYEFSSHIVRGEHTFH
IKZF2 (Helios), sequence (Q96SW2 whole entry): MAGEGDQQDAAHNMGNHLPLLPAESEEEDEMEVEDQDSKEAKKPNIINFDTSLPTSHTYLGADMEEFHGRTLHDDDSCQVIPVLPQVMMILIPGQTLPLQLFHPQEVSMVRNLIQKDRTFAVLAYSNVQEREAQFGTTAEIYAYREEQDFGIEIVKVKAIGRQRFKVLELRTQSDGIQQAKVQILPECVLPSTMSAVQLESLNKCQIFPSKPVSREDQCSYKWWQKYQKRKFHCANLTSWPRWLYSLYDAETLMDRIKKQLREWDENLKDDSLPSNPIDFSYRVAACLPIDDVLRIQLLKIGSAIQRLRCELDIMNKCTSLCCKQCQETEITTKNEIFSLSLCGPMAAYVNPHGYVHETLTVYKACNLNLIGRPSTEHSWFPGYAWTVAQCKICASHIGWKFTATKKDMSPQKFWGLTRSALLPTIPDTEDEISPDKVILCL
IKZF2 (Helios), sequence (Q16531 whole entry partner): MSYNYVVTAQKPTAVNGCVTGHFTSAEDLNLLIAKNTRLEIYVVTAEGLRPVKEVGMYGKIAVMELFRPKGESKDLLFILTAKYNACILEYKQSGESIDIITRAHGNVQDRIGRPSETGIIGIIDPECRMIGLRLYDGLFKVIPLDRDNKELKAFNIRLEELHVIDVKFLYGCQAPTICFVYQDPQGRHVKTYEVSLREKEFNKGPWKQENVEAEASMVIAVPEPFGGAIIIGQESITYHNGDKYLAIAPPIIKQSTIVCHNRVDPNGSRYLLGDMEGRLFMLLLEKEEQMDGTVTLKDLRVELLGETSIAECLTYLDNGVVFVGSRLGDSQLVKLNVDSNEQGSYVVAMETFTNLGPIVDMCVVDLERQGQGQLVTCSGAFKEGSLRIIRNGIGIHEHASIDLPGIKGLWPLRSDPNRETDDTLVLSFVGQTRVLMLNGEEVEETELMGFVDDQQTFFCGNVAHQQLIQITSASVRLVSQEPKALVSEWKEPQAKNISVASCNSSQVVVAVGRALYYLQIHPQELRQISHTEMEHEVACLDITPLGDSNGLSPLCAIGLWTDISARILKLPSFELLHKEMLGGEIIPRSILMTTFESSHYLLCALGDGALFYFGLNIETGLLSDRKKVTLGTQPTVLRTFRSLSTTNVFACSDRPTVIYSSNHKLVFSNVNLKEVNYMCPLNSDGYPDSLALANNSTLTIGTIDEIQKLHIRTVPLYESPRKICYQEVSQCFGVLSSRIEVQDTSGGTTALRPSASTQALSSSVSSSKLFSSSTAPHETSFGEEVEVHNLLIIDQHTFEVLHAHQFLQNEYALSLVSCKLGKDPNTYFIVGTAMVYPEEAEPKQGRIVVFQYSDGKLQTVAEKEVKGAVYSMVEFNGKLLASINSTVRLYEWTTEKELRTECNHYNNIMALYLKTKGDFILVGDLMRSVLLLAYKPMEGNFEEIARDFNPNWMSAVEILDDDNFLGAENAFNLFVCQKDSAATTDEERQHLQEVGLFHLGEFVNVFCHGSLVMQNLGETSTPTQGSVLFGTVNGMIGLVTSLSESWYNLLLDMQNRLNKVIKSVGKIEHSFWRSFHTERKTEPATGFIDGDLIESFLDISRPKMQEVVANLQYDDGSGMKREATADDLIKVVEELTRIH
Conditions: not given
The protocol: The Prolabel system from DiscoverX was used to develop high-throughput and quantitative assays to measure changes in IKZF1 and IKZF2 protein levels in response to compounds. The prolabel tag was derived from the alpha fragment of beta galactosidase and has the following protein sequence: mssnslavvlqrrdwenpgvtglnrlaahppfaswrnseeartdrpsqqlrsinge. The complementary fragment of beta-galactosidase (from DiscoverX), is added to the prolabel tag to form an active beta galactosidase enzyme whose activity can be precisely measured. In this way, the levels of a fusion protein with the prolabel tag can be quantified in cell lysates.
Lentiviral vectors, based on the Invitrogen pLenti6.2/V5 DEST backbone, were constructed that placed the prolabel tag upstream of IKZF1, IKZF2 or GSPT1 and expressed the fusion protein from a CMV promoter.
To ensure moderate and consistent expression of the prolabel fusion proteins across all cells in the population, stable cell lines were constructed from cells expressing a single copy of the construct. Lentivirus packaged with the constructs was made using the Virapower kit from Invitrogen.
The levels of prolabel tagged fusion proteins in compound treated cell lines were measured as follows: Day 1, Cells were diluted to 1.0×10^6 cells/ml in normal growth medium. 17.5 μL of cells were plated in each well of a solid white 384 well plate. Plates were incubated overnight in a 37° C. tissue culture incubator.
Day 2, Serial dilutions of compounds were made in 384 well plates from 10 mM stocks. 15 μL of DMSO was added to each well of a 384 well plate. In the first column, 15 μL of stock compound was added. The solution was mixed and 15 μL was transferred to the next column. This was repeated until 20 two-fold dilutions were prepared. 2.5 μL of diluted compounds were transferred into 60 μL of cell culture medium in another 384 well plate, and mixed well. 2.5 μL of this mixture was added to the plated cells. The final DMSO concentration was 0.5% and the highest concentration of compound was 50 μM. Plates were incubated overnight (e.g., about 14 h, 18 h, or 24 h) in a 37° C. tissue culture incubator.
Day 3, Plates were removed from the incubator and allowed to equilibrate at rt for 30 minutes. Prolabel substrate (DiscoverX PathHunter Prolabel Detection Kit, User manual: 93-0180) was added as described by the manufacturers protocols. Plates were incubated at rt for three hours and luminescence was read using an Envision reader (Perkin Elmer) Data was analyzed and visualized using the Spotfire software package.
On to `O=C1CCC(N2Cc3cc(C4CCN(Cc5ccc(=O)[nH]c5)CC4)ccc3C2=O)C(=O)N1` (centres unmarked) [Compound I-1, 3-(1-oxo-5-(1-((6-oxo-1,6-dihydropyridin-3-yl)methyl)piperidin-4-yl)isoindolin-2-yl)piperidine-2,6-dione], for which the “IKZF2 % protein reduction at 10 μM, 24 h” value stood at 70%. Regarding `CC1CC(c2ccc3c(c2)CN(C2CCC(=O)NC2=O)C3=O)CC(C)N1Cc1ccccc1` (centres unmarked) [Compound I-2, 3-(5-(1-benzyl-2,6-dimethylpiperidin-4-yl)-1-oxoisoindolin-2-yl)piperidine-2,6-dione], the “IKZF2 % protein reduction at 30 uM” value is listed as 35% at.

Still in this experiment, the particulars now being: 10 μM, 24 h, 293GT cells.
Consider `N#C[C@H]1CC[C@H](CN2CCC(c3ccc4c(c3)CN(C3CCC(=O)NC3=O)C4=O)CC2)CC1` (some centres unmarked) [Compound I-3, (1r,4r)-4-((4-(2-(2,6-dioxopiperidin-3-yl)-1-oxoisoindolin-5-yl)piperidin-1-yl)methyl)cyclohexane-1-carbonitrile], for which the “IKZF2 % protein reduction at 10 μM, 24 h” value is reported as 60%. As for `CCOc1ccc(CN2CCC(c3ccc4c(c3)CN(C3CCC(=O)NC3=O)C4=O)CC2)nc1` (centres unmarked) [Compound I-5, 3-(5-(1-((5-ethoxypyridin-2-yl)methyl)piperidin-4-yl)-1-oxoisoindolin-2-yl)piperidine-2,6-dione], the “IKZF2 % protein reduction at 10 μM, 24 h” value is on record as 60%.

As for `COc1ccc(CN2CCC(c3ccc4c(c3)CN(C3CCC(=O)NC3=O)C4=O)CC2)nc1` (centres unmarked) [Compound I-6, 3-(5-(1-((5-methoxypyridin-2-yl)methyl)piperidin-4-yl)-1-oxoisoindolin-2-yl)piperidine-2,6-dione], the “IKZF2 % protein reduction at 10 μM, 24 h” value worked out at 50%. On the same count and under the same terms, under `COc1ccc(CN2CCC(c3ccc4c(c3)CN(C3CCC(=O)NC3=O)C4=O)CC2)cn1` (centres unmarked) [Compound I-7, 3-(5-(1-((6-methoxypyridin-3-yl)methyl)piperidin-4-yl)-1-oxoisoindolin-2-yl)piperidine-2,6-dione] stands 80%; under `CCOc1ccc(CN2CCC(c3ccc4c(c3)CN(C3CCC(=O)NC3=O)C4=O)CC2)cn1` (centres unmarked) [Compound I-8, 3-(5-(1-((6-ethoxypyridin-3-yl)methyl)piperidin-4-yl)-1-oxoisoindolin-2-yl)piperidine-2,6-dione], 70%. Still for that read-out and setting: under `O=C1CCC(N2Cc3cc(C4CCN(CC5CCC(CF)CC5)CC4)ccc3C2=O)C(=O)N1` (centres unmarked) [Compound I-10, 3-(5-(1-((4-(fluoromethyl)cyclohexyl)methyl)piperidin-4-yl)-1-oxoisoindolin-2-yl)piperidine-2,6-dione] stands 75%; under `O=C1CCC(N2Cc3cc(C4CCN(CCn5cccn5)CC4)ccc3C2=O)C(=O)N1` (centres unmarked) [Compound I-11, 3-(5-(1-(2-(1H-pyrazol-1-yl)ethyl)piperidin-4-yl)-1-oxoisoindolin-2-yl)piperidine-2,6-dione], 60%.

For `CC1=CCC(CN2CCC(c3ccc4c(c3)CN(C3CCC(=O)NC3=O)C4=O)CC2)CC1` (centres unmarked) [Compound I-13, 3-(5-(1-((4-methylcyclohex-3-en-1-yl)methyl)piperidin-4-yl)-1-oxoisoindolin-2-yl)piperidine-2,6-dione], the “IKZF2 % protein reduction at 10 μM, 24 h” value stood at 80%.

On to `O=C1CCC(N2Cc3cc(C4CCN(Cc5cnccn5)CC4)ccc3C2=O)C(=O)N1` (centres unmarked) [Compound I-14, 3-(1-oxo-5-(1-(pyrazin-2-ylmethyl)piperidin-4-yl)isoindolin-2-yl)piperidine-2,6-dione], for which the “IKZF2 % protein reduction at 10 μM, 24 h” value amounted to 55%.

For `O=C1CCC(N2Cc3cc(C4CCN(Cc5cccnn5)CC4)ccc3C2=O)C(=O)N1` (centres unmarked) [Compound I-15, 3-(1-oxo-5-(1-(pyridazin-3-ylmethyl)piperidin-4-yl)isoindolin-2-yl)piperidine-2,6-dione], the “IKZF2 % protein reduction at 10 μM, 24 h” value was 40%. `O=C1CCC(N2Cc3cc(C4CCN(Cc5ccncn5)CC4)ccc3C2=O)C(=O)N1` (centres unmarked) [Compound I-16, 3-(1-oxo-5-(1-(pyrimidin-4-ylmethyl)piperidin-4-yl)isoindolin-2-yl)piperidine-2,6-dione]: the “IKZF2 % protein reduction at 10 μM, 24 h” value is listed as 50%. Turning to `Cc1ncc(CN2CCC(c3ccc4c(c3)CN(C3CCC(=O)NC3=O)C4=O)CC2)cn1` (centres unmarked) [Compound I-17, 3-(5-(1-((2-methylpyrimidin-5-yl)methyl)piperidin-4-yl)-1-oxoisoindolin-2-yl)piperidine-2,6-dione], the “IKZF2 % protein reduction at 10 μM, 24 h” value is reported as 50%. Take `O=C1CCC(N2Cc3cc(C4CCN(Cc5ccnnc5)CC4)ccc3C2=O)C(=O)N1` (centres unmarked) [Compound I-18, 3-(1-oxo-5-(1-(pyridazin-4-ylmethyl)piperidin-4-yl)isoindolin-2-yl)piperidine-2,6-dione]: the “IKZF2 % protein reduction at 10 μM, 24 h” value was 40%.

As for `CC(C1CCOCC1)N1CCC(c2ccc3c(c2)CN(C2CCC(=O)NC2=O)C3=O)CC1` (centres unmarked) [Compound I-30, 3-(1-oxo-5-(1-(1-(tetrahydro-2H-pyran-4-yl)ethyl)piperidin-4-yl)isoindolin-2-yl)piperidine-2,6-dione], the “IKZF2 % protein reduction at 10 μM, 24 h” value is on record as 80%.

As for `CCn1cc(C(C)N2CCC(c3ccc4c(c3)CN(C3CCC(=O)NC3=O)C4=O)CC2)cn1` (centres unmarked) [Compound I-31, 3-(5-(1-(1-(1-ethyl-1H-pyrazol-4-yl)ethyl)piperidin-4-yl)-1-oxoisoindolin-2-yl)piperidine-2,6-dione], the “IKZF2 % protein reduction at 10 μM, 24 h” value was 70%.

Regarding `CCC(c1cnn(CC)c1)N1CCC(c2ccc3c(c2)CN(C2CCC(=O)NC2=O)C3=O)CC1` (centres unmarked) [Compound I-32, 3-(5-(1-(1-(1-ethyl-1H-pyrazol-4-yl)propyl)piperidin-4-yl)-1-oxoisoindolin-2-yl)piperidine-2,6-dione], the “IKZF2 % protein reduction at 10 μM, 24 h” value came out at 62%.

Turning to `CCC(c1cnccn1)N1CCC(c2ccc3c(c2)CN(C2CCC(=O)NC2=O)C3=O)CC1` (centres unmarked) [Compound I-33, 3-(1-oxo-5-(1-(1-(pyrazin-2-yl)propyl)piperidin-4-yl)isoindolin-2-yl)piperidine-2,6-dione], the “IKZF2 % protein reduction at 10 μM, 24 h” value came out at 62%. For the compound `O=C1CCC(N2Cc3cc(C4CCN(C5CCc6ncccc65)CC4)ccc3C2=O)C(=O)N1` (centres unmarked) [Compound I-35, 3-(5-(1-(6,7-dihydro-5H-cyclopenta[b]pyridin-5-yl)piperidin-4-yl)-1-oxoisoindolin-2-yl)piperidine-2,6-dione], the “IKZF2 % protein reduction at 10 μM, 24 h” value is reported as 80%.

Regarding `COC1CCC(N2CCC(c3ccc4c(c3)CN(C3CCC(=O)NC3=O)C4=O)CC2)CC1` (centres unmarked) [Compound I-36, 3-(5-(1-(4-methoxycyclohexyl)piperidin-4-yl)-1-oxoisoindolin-2-yl)piperidine-2,6-dione], the “IKZF2 % protein reduction at 10 μM, 24 h” value came to 74%.

The next experiment deals with T1, human TGF-β2 (Homo sapiens, UniProt P61812).
T1 sequence (P61812 303-414 limits assumed): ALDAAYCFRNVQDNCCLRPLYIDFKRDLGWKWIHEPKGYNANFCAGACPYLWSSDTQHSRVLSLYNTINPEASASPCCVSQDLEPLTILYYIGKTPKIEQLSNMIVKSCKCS
Assay: not given
To be noted: Biacore; cited from earlier work.
“XOMA 089: fully human monoclonal antibody that specifically binds and neutralizes TGF-beta 1 and 2 ligands”: the dissociation constant (Kd) (as a rule, the free concentration of one partner at which half of the binding sites on the other are occupied at equilibrium, for simple one-to-one binding) is 67.3 µM.

A further experiment has as its target T2, human TGF-β3 (Homo sapiens, UniProt P10600).
T2 sequence (P10600 301-412 limits assumed): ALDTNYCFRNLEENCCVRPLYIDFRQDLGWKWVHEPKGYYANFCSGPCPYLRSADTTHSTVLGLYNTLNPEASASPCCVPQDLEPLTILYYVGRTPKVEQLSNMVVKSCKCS
Assay: not given
To be noted: Biacore; cited from earlier work.
For “XOMA 089: fully human monoclonal antibody that specifically binds and neutralizes TGF-beta 1 and 2 ligands”, the Kd was 948 µM.

The record behind these values is US20250289802A1, “3-(1-OXO-5-(PIPERIDIN-4-YL)ISOINDOLIN-2-YL)PIPERIDINE-2,6-DIONE DERIVATIVES AND USES THEREOF” (NOVARTIS AG, priority 2019, published 2025).
